Values joined by “and” are separate entries in the source; they are usually repeats but may differ in a detail not shown here. Equal entries are not always repeated. Inconclusive results and toxic doses are left out.
Tested on: CD2F1 mice, L1210 leukemia ip, survival T/C
Assay: NCI In Vivo Anticancer Drug Screen. Data for tumor model L1210 Leukemia (intraperitoneal) in CD2F1 (CDF1) mice
Settings: higher = longer survival
Summary of the method: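 Transplantable tumor in mice; compound-treated vs vehicle-treated groups. Read-out = treated/control ratio of the measured endpoint.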

[1] = endpoint: mean survival time, dose: 50.0 mg/kg/injection, schedule: Q01DX001 (ip), vehicle: saline
[2] = endpoint: mean survival time, dose: 100.0 mg/kg/injection, schedule: Q04DX002 (ip), vehicle: saline with Tween-80
[3] = endpoint: mean survival time, dose: 200.0 mg/kg/injection, schedule: Q04DX002 (ip), vehicle: saline with Tween-80
[4] = endpoint: mean survival time, dose: 400.0 mg/kg/injection, schedule: Q04DX002 (ip), vehicle: saline with Tween-80

O=CC(NC(=O)N(CCCl)N=O)C(O)C(O)C(O)CO (stereo not given)
T/C (endpoint: mean survival time, dose: 0.94 mg/kg/injection, schedule: Q01DX009 (ip), vehicle: citric acid): 117 % of control
T/C (endpoint: mean survival time, dose: 1.88 mg/kg/injection, schedule: Q01DX009 (ip), vehicle: citric acid): 162 % of control
T/C (endpoint: mean survival time, dose: 3.75 mg/kg/injection, schedule: Q01DX009 (ip), vehicle: citric acid): 182 % of control and 242 % of control
T/C (endpoint: mean survival time, dose: 3.75 mg/kg/injection, schedule: Q01DX009 (ip), vehicle: saline): 186 % of control
T/C (endpoint: mean survival time, dose: 3.8 mg/kg/injection, schedule: Q01DX009 (ip), vehicle: water): 406 % of control
T/C (endpoint: mean survival time, dose: 5.0 mg/kg/injection, schedule: Q04DX002 (ip), vehicle: saline): 173 % of control and 250 % of control
T/C (endpoint: mean survival time, dose: 7.0 mg/kg/injection, schedule: Q01DX001 (ip), vehicle: saline): 115 % of control
T/C (endpoint: mean survival time, dose: 7.5 mg/kg/injection, schedule: Q01DX009 (ip), vehicle: citric acid): 97 % of control
T/C (endpoint: mean survival time, dose: 7.5 mg/kg/injection, schedule: Q01DX009 (ip), vehicle: saline): 223 % of control
T/C (endpoint: mean survival time, dose: 7.5 mg/kg/injection, schedule: Q01DX009 (ip), vehicle: water): 154 % of control
T/C (endpoint: mean survival time, dose: 8.0 mg/kg/injection, schedule: Q01DX001 (ip), vehicle: water): 267 % of control
T/C (endpoint: mean survival time, dose: 10.0 mg/kg/injection, schedule: Q04DX002 (ip), vehicle: saline): 276 % of control and 289 % of control
T/C (endpoint: mean survival time, dose: 11.0 mg/kg/injection, schedule: Q01DX001 (ip), vehicle: saline): 151 % of control and 160 % of control
T/C (endpoint: mean survival time, dose: 12.5 mg/kg/injection, schedule: Q01DX001 (ip), vehicle: saline): 158 % of control
T/C (endpoint: mean survival time, dose: 15.0 mg/kg/injection, schedule: Q01DX009 (ip), vehicle: saline): 120 % of control
T/C (endpoint: mean survival time, dose: 15.0 mg/kg/injection, schedule: Q01DX009 (ip), vehicle: water): 93 % of control
T/C (endpoint: mean survival time, dose: 16.0 mg/kg/injection, schedule: Q01DX001 (ip), vehicle: saline): 336 % of control [middle of 4 runs]
T/C (endpoint: mean survival time, dose: 16.0 mg/kg/injection, schedule: Q01DX001 (ip), vehicle: water): 369 % of control
T/C (endpoint: mean survival time, dose: 20.0 mg/kg/injection, schedule: Q01DX001 (ip), vehicle: saline): 688 % of control
T/C (endpoint: mean survival time, dose: 20.0 mg/kg/injection, schedule: Q04DX002 (ip), vehicle: saline): 331 % of control and 335 % of control
T/C (endpoint: mean survival time, dose: 25.0 mg/kg/injection, schedule: Q01DX001 (ip), vehicle: saline): 535 % of control
T/C (endpoint: mean survival time, dose: 28.0 mg/kg/injection, schedule: Q01DX001 (ip), vehicle: saline): 857 % of control
T/C (endpoint: mean survival time, dose: 32.0 mg/kg/injection, schedule: Q01DX001 (ip), vehicle: water): 372 % of control
T/C (endpoint: mean survival time, dose: 36.0 mg/kg/injection, schedule: Q01DX001 (ip), vehicle: saline): 603 % of control [middle of 4 runs]
T/C (endpoint: mean survival time, dose: 40.0 mg/kg/injection, schedule: Q04DX002 (ip), vehicle: saline): 92 % of control and 101 % of control
T/C [1]: 202 % of control
T/C (endpoint: mean survival time, dose: 54.0 mg/kg/injection, schedule: Q01DX001 (ip), vehicle: saline): 300 % of control and 548 % of control
T/C (endpoint: median survival time, dose: 15.0 mg/kg/injection, schedule: Q01DX001 (ip), vehicle: saline): 152 % of control
T/C (endpoint: median survival time, dose: 25.0 mg/kg/injection, schedule: Q01DX001 (ip), vehicle: saline): 181 % of control
T/C (endpoint: median survival time, dose: 42.0 mg/kg/injection, schedule: Q01DX001 (ip), vehicle: saline): 406 % of control

CCOc1ccc(/C=C2N=C(/C=C/c3ccccc3)OC\2=O)cc1
T/C [2]: 91 % of control
T/C [3]: 95 % of control
T/C [4]: 91 % of control

CNC(=S)SC
T/C [1]: 98 % of control
T/C (endpoint: mean survival time, dose: 100.0 mg/kg/injection, schedule: Q01DX001 (ip), vehicle: saline): 102 % of control
T/C (endpoint: mean survival time, dose: 200.0 mg/kg/injection, schedule: Q01DX001 (ip), vehicle: saline): 104 % of control

O=CCC1CCCCC1
T/C (endpoint: mean survival time, dose: 50.0 mg/kg/injection, schedule: Q01DX009 (ip), vehicle: saline with Tween-80): 105 % of control
T/C (endpoint: mean survival time, dose: 100.0 mg/kg/injection, schedule: Q01DX009 (ip), vehicle: saline with Tween-80): 94 % of control
T/C (endpoint: mean survival time, dose: 200.0 mg/kg/injection, schedule: Q01DX009 (ip), vehicle: saline with Tween-80): 102 % of control

CN(C)CCN1C(=O)c2cccc3cc([N+](=O)[O-])cc(c23)C1=O
T/C (endpoint: mean survival time, dose: 0.75 mg/kg/injection, schedule: Q01DX009 (ip), vehicle: saline with Tween-80): 100 % of control and 106 % of control
T/C (endpoint: mean survival time, dose: 1.5 mg/kg/injection, schedule: Q01DX009 (ip), vehicle: saline with Tween-80): 115 % of control and 107 % of control
T/C (endpoint: mean survival time, dose: 1.5 mg/kg/injection, schedule: Q01DX009 (ip), vehicle: saline): 102 % of control
T/C (endpoint: mean survival time, dose: 3.0 mg/kg/injection, schedule: Q01DX009 (ip), vehicle: saline with Tween-80): 113 % of control
T/C (endpoint: mean survival time, dose: 3.0 mg/kg/injection, schedule: Q01DX009 (ip), vehicle: saline): 107 % of control
T/C (endpoint: mean survival time, dose: 6.0 mg/kg/injection, schedule: Q01DX009 (ip), vehicle: saline): 109 % of control
T/C (endpoint: mean survival time, dose: 12.0 mg/kg/injection, schedule: Q01DX009 (ip), vehicle: saline with Tween-80): 120 % of control
T/C (endpoint: mean survival time, dose: 12.0 mg/kg/injection, schedule: Q01DX009 (ip), vehicle: saline): 117 % of control
T/C (endpoint: median survival time, dose: 0.37 mg/kg/injection, schedule: Q01DX009 (ip), vehicle: saline with Tween-80): 100 % of control
T/C (endpoint: median survival time, dose: 0.75 mg/kg/injection, schedule: Q01DX009 (ip), vehicle: saline with Tween-80): 95 % of control and 105 % of control
T/C (endpoint: median survival time, dose: 1.5 mg/kg/injection, schedule: Q01DX009 (ip), vehicle: saline with Tween-80): 116 % of control and 98 % of control
T/C (endpoint: median survival time, dose: 3.0 mg/kg/injection, schedule: Q01DX009 (ip), vehicle: saline with Tween-80): 104 % of control and 110 % of control
T/C (endpoint: median survival time, dose: 6.0 mg/kg/injection, schedule: Q01DX009 (ip), vehicle: saline with Tween-80): 122 % of control
T/C (endpoint: median survival time, dose: 12.0 mg/kg/injection, schedule: Q01DX009 (ip), vehicle: saline with Tween-80): 122 % of control

Cc1cc(N(CCOS(C)(=O)=O)CCOS(C)(=O)=O)ccc1C=Nc1ccc(-c2csc(Cc3ccccc3)n2)cc1
T/C (endpoint: mean survival time, dose: 6.25 mg/kg/injection, schedule: Q01DX009 (ip), vehicle: saline with Tween-80): 102 % of control
T/C (endpoint: mean survival time, dose: 12.5 mg/kg/injection, schedule: Q01DX009 (ip), vehicle: saline with Tween-80): 105 % of control

CCCCS(=O)(=O)CC(O)c1ccccc1 (stereo not given)
T/C [2]: 115 % of control
T/C [3]: 101 % of control
T/C [4]: 104 % of control

[Cl][Mn][Cl]
T/C (endpoint: median survival time, dose: 8.0 mg/kg/injection, schedule: Q01DX009 (ip), vehicle: saline): 92 % of control
T/C (endpoint: median survival time, dose: 16.0 mg/kg/injection, schedule: Q01DX009 (ip), vehicle: saline): 97 % of control
T/C (endpoint: median survival time, dose: 32.0 mg/kg/injection, schedule: Q01DX009 (ip), vehicle: saline): 103 % of control
T/C (endpoint: median survival time, dose: 64.0 mg/kg/injection, schedule: Q01DX009 (ip), vehicle: saline): 110 % of control

Nc1ccc2ncccc2c1
T/C (endpoint: mean survival time, dose: 25.0 mg/kg/injection, schedule: Q01DX009 (ip), vehicle: other): 93 % of control
T/C (endpoint: mean survival time, dose: 50.0 mg/kg/injection, schedule: Q01DX009 (ip), vehicle: other): 95 % of control
T/C (endpoint: mean survival time, dose: 100.0 mg/kg/injection, schedule: Q01DX009 (ip), vehicle: other): 91 % of control

C#CCO
T/C (endpoint: mean survival time, dose: 12.0 mg/kg/injection, schedule: Q04DX003 (ip), vehicle: saline): 94 % of control
T/C (endpoint: mean survival time, dose: 25.0 mg/kg/injection, schedule: Q04DX003 (ip), vehicle: saline): 97 % of control
T/C (endpoint: mean survival time, dose: 50.0 mg/kg/injection, schedule: Q04DX003 (ip), vehicle: saline): 103 % of control

O=S(=O)(OCCOC(c1ccccc1)(c1ccccc1)c1ccccc1)c1ccc(Br)cc1
T/C (endpoint: mean survival time, dose: 100.0 mg/kg/injection, schedule: Q04DX003 (ip), vehicle: saline with Tween-80): 94 % of control
T/C (endpoint: mean survival time, dose: 200.0 mg/kg/injection, schedule: Q04DX003 (ip), vehicle: saline with Tween-80): 90 % of control
T/C (endpoint: mean survival time, dose: 400.0 mg/kg/injection, schedule: Q04DX003 (ip), vehicle: saline with Tween-80): 98 % of control

O=C1C(n2ccc(=O)[nH]c2=O)CCN1CCO (stereo not given)
T/C (endpoint: mean survival time, dose: 100.0 mg/kg/injection, schedule: Q04DX003 (ip), vehicle: other): 102 % of control
T/C (endpoint: mean survival time, dose: 200.0 mg/kg/injection, schedule: Q04DX003 (ip), vehicle: other): 102 % of control
T/C (endpoint: mean survival time, dose: 400.0 mg/kg/injection, schedule: Q04DX003 (ip), vehicle: other): 96 % of control

Oc1cc(O)c2c(c1)OC(c1ccc(O)c(O)c1)C(OC1(c3cc(O)c(O)c(O)c3)Oc3cc(O)cc(O)c3C(O)C1O)C2 (stereo not given)
T/C (endpoint: mean survival time, dose: 100.0 mg/kg/injection, schedule: Q04DX003 (ip), vehicle: saline): 109 % of control
T/C (endpoint: mean survival time, dose: 200.0 mg/kg/injection, schedule: Q04DX003 (ip), vehicle: saline): 95 % of control
T/C (endpoint: mean survival time, dose: 400.0 mg/kg/injection, schedule: Q04DX003 (ip), vehicle: saline): 107 % of control

CS(=O)(=O)CC1C2CCC(CC2)C1CS(C)(=O)=O (stereo not given)
T/C (endpoint: mean survival time, dose: 100.0 mg/kg/injection, schedule: Q01DX001 (ip), vehicle: saline with Tween-80): 93 % of control
T/C (endpoint: mean survival time, dose: 200.0 mg/kg/injection, schedule: Q01DX001 (ip), vehicle: saline with Tween-80): 106 % of control
T/C (endpoint: mean survival time, dose: 400.0 mg/kg/injection, schedule: Q01DX001 (ip), vehicle: saline with Tween-80): 92 % of control
